Measurements published in patent publication US6936600B2, “Sorbitol dehrydrogenase inhibitors” (Pfizer Inc, priority 1999, dated 2005).

Structure (SMILES) | melting point [°C]
C[C@@H](OC(=O)Cc1nn(Cc2nc3cc(C(F)(F)F)ccc3s2)c(=O)c2ccccc12)c1nccc(N2CCN(C(=O)/C=C/c3cccs3)CC2)n1 [Example 276, (E)-[4-Oxo-3-(5-trifluoromethyl-benzothiazol-2-ylmethyl)-3,4-dihydro-phthalazin-1-yl]-acetic acid 1R-{4-[4-(3-thiophen-2-yl-acryloyl)-piperazin-1-yl]-pyrimidin-2-yl}-ethyl ester] | 105 to 109
COc1nc(C)nc(N2[C@H](C)CN(c3ccnc([C@@H](C)O)n3)C[C@@H]2C)n1 [Example 213, 1R-{4-[4-(4-Methoxy-6-methyl-[1,3,5]triazin-2-yl)-3R,5S-dimethylpiperazin-1-yl]-pyrimidin-2-yl}-ethanol] | 161 to 162
C[C@@H](O)c1nccc(N2C[C@@H]3C[C@H]2CN3S(=O)(=O)N(C)C)n1 [Example 120] | 110 to 111
C[C@@H]1CN(c2ccnc(N3CCN(C)CC3)n2)C[C@H](C)N1c1ccnc([C@@H](C)O)n1 [Example 202, 1R-(4-{2R,6S-Dimethyl-4-[2-(4-methyl-piperazin-1-yl)-pyrimidin-4-yl]-piperazin-1-yl}-pyrimidin-2-yl)-ethanol] | 60 to 70
C[C@@H]1CN(c2nccc(-n3cncn3)n2)C[C@H](C)N1c1ccnc([C@@H](C)O)n1 [Example 196, 1R-{4-[2R,6S-Dimethyl-4-(4-[1,2,4]triazol-1-yl-pyrimidin-2-yl)-piperazin-1-yl]-pyrimidin-2-yl}-ethanol] | 181 to 182
C[C@@H](O)c1nccc(N2CCc3nc(-c4ccncc4)ncc3C2)n1 [Example 258] | 144 to 148
C[C@@H](O)c1nccc(N2C[C@@H]3C[C@H]2CN3S(=O)(=O)c2cccs2)n1 [Example 116] | 84 to 86
C[C@@H](O)c1nccc(N2CCn3c(nnc3-c3nc4ccccc4s3)C2)n1 [Example 259, (R)-1-[4-(3-Benzothiazol-2-yl-5,6-dihydro-8H-[1,2,4]triazolo[4,3-a]pyrazin-7-yl)-pyrimidin-2-yl]-ethanol] | 216.5 to 218.5
C[C@@H]1CN(c2nc3ncccc3o2)C[C@H](C)N1c1ccnc([C@@H](C)O)n1 [Example 31, 1R-[4-(2R,6S-Dimethyl-4-oxazolo-[4,5-b]pyridin-2-yl-piperazin-1-yl)-pyrimidin-2-yl]-ethanol] | 231 to 233
C[C@@H](O)c1nccc(N2CCN(c3nc4ncccc4o3)[C@@H](C)C2)n1 [Example 20, 1R-[4-(3S-Methyl-4-oxazolo[4,5-b]pyridin-2-yl-piperazin-1-yl)-pyrimidin-2-yl]-ethanol] | 158 to 161
C[C@@H](O)c1nccc(N2CCC(C3CCN(c4ccnc([C@@H](C)O)n4)CC3)CC2)n1 [Example 3, 1R-(4-{1′-[2-(1R-Hydroxy-ethyl)-pyrimidin-4-yl]-[4,4′]bipiperidinyl-1-yl}-pyrimidin-2-yl)-ethanol] | 144 to 153

The remaining lines, values ahead:

melting point [°C] | Structure (SMILES)
44 to 59 | C[C@@H](O)c1nccc(N2CCC(=CC(=O)c3ccccc3)CC2)n1 [Example 179]
128 to 131 | C[C@@H](O)c1nccc(N2CCc3nc(-c4ccccc4)ncc3C2)n1 [Example 257]
103 to 105 | Cc1nc2c(c(Sc3ccccc3)n1)CCN(c1ccnc([C@@H](C)O)n1)C2 [Example 98]
161 to 164 | C[C@@H](O)c1nccc(N2CCn3c(nnc3-c3ccccc3)C2)n1 [Example 260]
114 | C[C@@H](O)c1nccc(N2CCC(O)(c3ccccc3)CC2)n1 [Example 175, (R)-4-Phenyl-1-[2-(1-hydroxy-ethyl)-pyrimidin-4-yl]-piperidin-4-ol]
128 to 131 | Cc1nc2c(c(N3CCc4ccccc43)n1)CCN(c1ccnc([C@@H](C)O)n1)C2 [Example 99]
98 to 101 | C[C@@H](O)c1nccc(N2CCC(=C(c3ccccc3)c3ccccn3)CC2)n1 [Example 181]
